According to patent publication US12569452B2, “Ophthalmic compositions comprising F6H8” (NOVALIQ GMBH, priority 2017, dated 2026):

Key:
[1] = Ocular tissue distribution after single topical ocular dose of 14C-F6H8, liquid scintillation counting; assay type: in vivo, Dutch Belted (pigmented) female rabbits; conditions: for Mean concentration of radioactivity, Conjunctiva (bulbar) / Mean concentration of radioactivity, Conjunctiva (palpebral) / Mean concentration of radioactivity, Cornea / Mean concentration of radioactivity, Lacrimal gland (accessory) / Mean concentration of radioactivity, Lacrimal gland (main) / Mean concentration of radioactivity, Meibomian glands / Mean concentration of radioactivity, Sclera (anterior) / Mean concentration of radioactivity, Tears: single topical ocular dose
Experimental: The study is conducted to assess the ocular tissue distribution after topical ocular administration of ^14C-1-Perfluorohexyloctane (F6H8, NovaTears®) to Dutch Belted (pigmented) female rabbits.
On the first day of dosing, 5.474 mL of ^14C—F6H8 is combined with 9.526 mL of F6H8. The dose formulation is magnetically stirred and appears to be a colorless solution. The dose formulation is separated into vials to provide one vial per day for dose administration and it is stored at approximately −20° C. One vial per day is thawed prior to dose administration. In between dose administrations, the vial is capped and stored at approximately 5° C. when not in use.
Animals are not fasted prior to dose administration. All animals receive single 35 μL-drops of the dose formulation in each eye, with the right eye dosed first. All collection times are based on the time of dosing of the second (left) eye for the last dose, as applicable.
After the dose is administered, the eye is allowed to close naturally. Each animal is then restrained for approximately 1 minute to prevent rubbing of the eyes.
Tears and Ocular Tissue Collection: Tears are collected from two animals per group per time point at 0.25, 0.5, 1, 2, 4, 8, and 24 hours post-dose following the single dose or the last dose of the multiple dose scheme. Tears are collected using Tear Flo Test (TFT) strips that were dye free. One strip of paper is used for each eye for each time point. Following collection, the tube containing the strip is placed on dry ice or stored at approximately −70° C. until analysed.
At the time of sacrifice, both eyes are enucleated and ocular tissues including Aqueous humour, Conjunctiva (bulbar), Conjunctiva (palpebral), Lacrimal gland (accessory), Lacrimal gland (main), Meibomian glands (tarsal plate), Choroid-Retinal pigmented epithelium (Choroid-RPE), Cornea, Iris-ciliary body (ICB), Retina, Sclera (anterior), Sclera (posterior), Vitreous humour are collected.
Radioanalysis: All samples are analyzed for radioactivity in a Model 2900TR liquid scintillation counter (Packard Instrument Company) for at least 5 minutes or 100,000 counts, utilizing Ultima Gold XR or Hionic Fluor scintillation cocktails (Perkin Elmer). Each sample is homogenized before radioanalysis, unless the entire sample is used for analysis. All samples are analyzed in duplicate if sample size allows.
For Conjunctiva (bulbar and palpebral), Cornea, Lacrimal gland (main), Meibomian glands, Retina, and Sclera (anterior and posterior), each sample is digested in 2M sodium hydroxide in ethanol (80:20, v:v) and maintained at room temperature or in an oven set no higher than 30° C. until dissolved. Scintillation cocktail is added, and the samples are shaken and analyzed directly by LSC.
For Lacrimal gland (accessory), each sample is digested in 2M sodium hydroxide in ethanol (80:20, v:v) and maintained at room temperature or in an oven set no higher than 30° C. until dissolved. The sample is homogenized by mixing and duplicate weighed aliquots are analyzed directly by LSC.
For Tears, at least 10 mL of Ultima Gold XR scintillation cocktail is added, and the samples are shaken and analyzed by LSC.
Single topical ocular administration, radioanalysis of ocular tissues: The rabbits received a single topical ocular administration in both eyes. The target dose level is 45.6 mg/eye (25 μCi/eye). Following the single topical ocular dose of 35 μl of ^14C—F6H8, two animals per time point are sacrificed at 0.25, 0.5, 1, 2, 4, 8, and 24 hours post-dose in a sparse sampling profile. Ocular tissues (including tears collected prior to sacrifice) are collected from all animals at sacrifice.

[2] = Quantitative autoradiography of whole head after single topical ocular dose of 14C-F6H8; assay type: in vivo, female Dutch Belted rabbits; conditions: single dose 35 μl
Text: Quantitative Autoradiography: Animals are euthanized with sodium pentobarbital and blood is collected via cardiac puncture. Immediately after blood collection, the animals were frozen for quantitative autoradiography. The frozen heads are embedded in chilled carboxymethyl cellulose and frozen into blocks. Appropriate sections are collected on adhesive tape at […], in a Leica CM 3600 cryomicrotome. Mounted sections are exposed for 4 days on phosphor imaging screens along with fortified blood standards for subsequent calibration of the image analysis software and subsequently scanned using a Typhoon scanner. The autoradiographic standard image data are sampled using InterFocus Imaging Ltd. MCID™ Analysis software to create a calibrated standard curve. Specified tissues and fluids are analysed. Tissue concentrations are interpolated from each standard curve as nanocuries/g and then converted to ng equivalents/g on the basis of the test article specific activity.
The highest concentrations (>10000 ng equivalents ^14C—F6H8/g) are found in the anterior tissues in the order eyelid margin (443000)>internal eyelid (171000)>cornea (33500). Other tissues with high concentrations are the external eyelid skin, nasolacrimal duct, and nasal turbinates.

[3] = single dose, between 0.25 and 4 hours post-dose

In the case of ^14C-1-Perfluorohexyloctane [^14C-F6H8], the “Radioactivity in the iris-ciliary body and choroid-RPE” value ([1]; single dose) is reported as “No radioactivity is detected”, the “Radioactivity in the vitreous humour and retina” value ([1]; single dose) is reported as “Low levels” and the “Highest mean concentration, Meibomian glands” value [1, 3] is reported as 294000 ng equivalents ^14C—F6H8/g. The “Highest mean concentration, accessory lacrimal gland” value [1, 3] was 4280 ng equivalents ^14C—F6H8/g, the “Highest mean concentration, anterior sclera” value [1, 3] was 2270 ng equivalents ^14C—F6H8/g and the “Highest mean concentration, bulbar conjunctiva” value [1, 3] was 5450 ng equivalents ^14C—F6H8/g. For the same substance, the “Highest mean concentration, cornea” value [1, 3] was 8230 ng equivalents ^14C—F6H8/g, the “Highest mean concentration, main lacrimal gland” value [1, 3] was 4130 ng equivalents ^14C—F6H8/g and the “Highest mean concentration, palpebral conjunctiva” value [1, 3] was 14200 ng equivalents ^14C—F6H8/g. For the same substance, the “Highest mean concentration, tears” value [1, 3] was 2390000 ng equivalents ^14C—F6H8/g, the “Mean concentration of radioactivity, Conjunctiva (bulbar)” value (from here on “Mean concentration … (bulbar)”) ([1]; 0.25 h post-dose) was 5450 ng Equivalents ^14C-F6H8/g and the “Mean concentration of radioactivity, Conjunctiva (palpebral)” value (from here on “Mean concentration … (palpebral)”) ([1]; 0.25 h post-dose) was 14200 ng Equivalents ^14C-F6H8/g. The “Mean concentration of radioactivity, Cornea” value ([1]; 0.25 h post-dose) was 2040 ng Equivalents ^14C-F6H8/g, the “Mean concentration of radioactivity, Lacrimal gland (accessory)” value (“Mean concentration … (accessory)” for short) ([1]; 0.25 h post-dose) was 577 ng Equivalents ^14C-F6H8/g and the “Mean concentration of radioactivity, Lacrimal gland (main)” value (shortened to “Mean concentration … (main)”) ([1]; 0.25 h post-dose) was 1670 ng Equivalents ^14C-F6H8/g. For the same substance, the “Mean concentration of radioactivity, Meibomian glands” value ([1]; 0.25 h post-dose) was 294000 ng Equivalents ^14C-F6H8/g, the “Mean concentration of radioactivity, Sclera (anterior)” value (shortened to “Mean concentration … (anterior)”) ([1]; 0.25 h post-dose) was 1140 ng Equivalents ^14C-F6H8/g and the “Mean concentration of radioactivity, Tears” value ([1]; 0.25 h post-dose) was 2390000 ng Equivalents ^14C-F6H8/g. For the same substance, the “Mean concentration … (bulbar)” value ([1]; 0.5 h post-dose) was 3680 ng Equivalents ^14C-F6H8/g, the “Mean concentration … (palpebral)” value ([1]; 0.5 h post-dose) was 5180 ng Equivalents ^14C-F6H8/g and the “Mean concentration of radioactivity, Cornea” value ([1]; 0.5 h post-dose) was 8230 ng Equivalents ^14C-F6H8/g. The “Mean concentration … (accessory)” value ([1]; 0.5 h post-dose) was 0.00 ng Equivalents ^14C-F6H8/g, the “Mean concentration … (main)” value ([1]; 0.5 h post-dose) was 2770 ng Equivalents ^14C-F6H8/g and the “Mean concentration of radioactivity, Meibomian glands” value ([1]; 0.5 h post-dose) was 102000 ng Equivalents ^14C-F6H8/g. For the same substance, the “Mean concentration … (anterior)” value ([1]; 0.5 h post-dose) was 2270 ng Equivalents ^14C-F6H8/g, the “Mean concentration of radioactivity, Tears” value ([1]; 0.5 h post-dose) was 995000 ng Equivalents ^14C-F6H8/g and the “Mean concentration … (bulbar)” value ([1]; 1 h post-dose) was 3320 ng Equivalents ^14C-F6H8/g. The “Mean concentration … (palpebral)” value ([1]; 1 h post-dose) was 5700 ng Equivalents ^14C-F6H8/g, the “Mean concentration of radioactivity, Cornea” value ([1]; 1 h post-dose) was 6110 ng Equivalents ^14C-F6H8/g and the “Mean concentration … (accessory)” value ([1]; 1 h post-dose) was 255 ng Equivalents ^14C-F6H8/g. For the same substance, the “Mean concentration … (main)” value ([1]; 1 h post-dose) was 641 ng Equivalents ^14C-F6H8/g, the “Mean concentration of radioactivity, Meibomian glands” value ([1]; 1 h post-dose) was 57600 ng Equivalents ^14C-F6H8/g and the “Mean concentration … (anterior)” value ([1]; 1 h post-dose) was 1300 ng Equivalents ^14C-F6H8/g. The “Mean concentration of radioactivity, Tears” value ([1]; 1 h post-dose) was 444000 ng Equivalents ^14C-F6H8/g, the “Mean concentration … (bulbar)” value ([1]; 2 h post-dose) was 3050 ng Equivalents ^14C-F6H8/g and the “Mean concentration … (palpebral)” value ([1]; 2 h post-dose) was 4230 ng Equivalents ^14C-F6H8/g. The “Mean concentration of radioactivity, Cornea” value ([1]; 2 h post-dose) was 3230 ng Equivalents ^14C-F6H8/g, the “Mean concentration … (accessory)” value ([1]; 2 h post-dose) was 1450 ng Equivalents ^14C-F6H8/g and the “Mean concentration … (main)” value ([1]; 2 h post-dose) was 1530 ng Equivalents ^14C-F6H8/g. For the same substance, the “Mean concentration of radioactivity, Meibomian glands” value ([1]; 2 h post-dose) was 69200 ng Equivalents ^14C-F6H8/g, the “Mean concentration … (anterior)” value ([1]; 2 h post-dose) was 767 ng Equivalents ^14C-F6H8/g and the “Mean concentration of radioactivity, Tears” value ([1]; 2 h post-dose) was 700000 ng Equivalents ^14C-F6H8/g. For the same substance, the “Mean concentration … (bulbar)” value ([1]; 4 h post-dose) was 1610 ng Equivalents ^14C-F6H8/g, the “Mean concentration … (palpebral)” value ([1]; 4 h post-dose) was 2500 ng Equivalents ^14C-F6H8/g and the “Mean concentration of radioactivity, Cornea” value ([1]; 4 h post-dose) was 4480 ng Equivalents ^14C-F6H8/g. For the same substance, the “Mean concentration … (accessory)” value ([1]; 4 h post-dose) was 4280 ng Equivalents ^14C-F6H8/g, the “Mean concentration … (main)” value ([1]; 4 h post-dose) was 4130 ng Equivalents ^14C-F6H8/g and the “Mean concentration of radioactivity, Meibomian glands” value ([1]; 4 h post-dose) was 29100 ng Equivalents ^14C-F6H8/g. The “Mean concentration … (anterior)” value ([1]; 4 h post-dose) was 1170 ng Equivalents ^14C-F6H8/g, the “Mean concentration of radioactivity, Tears” value ([1]; 4 h post-dose) was 207000 ng Equivalents ^14C-F6H8/g and the “Mean concentration … (bulbar)” value ([1]; 8 h post-dose) was 1340 ng Equivalents ^14C-F6H8/g. The “Mean concentration … (palpebral)” value ([1]; 8 h post-dose) was 1790 ng Equivalents ^14C-F6H8/g, the “Mean concentration of radioactivity, Cornea” value ([1]; 8 h post-dose) was 6080 ng Equivalents ^14C-F6H8/g and the “Mean concentration … (accessory)” value ([1]; 8 h post-dose) was 2110 ng Equivalents ^14C-F6H8/g. The “Mean concentration … (main)” value ([1]; 8 h post-dose) was 2120 ng Equivalents ^14C-F6H8/g, the “Mean concentration of radioactivity, Meibomian glands” value ([1]; 8 h post-dose) was 21100 ng Equivalents ^14C-F6H8/g and the “Mean concentration … (anterior)” value ([1]; 8 h post-dose) was 1330 ng Equivalents ^14C-F6H8/g. The “Mean concentration of radioactivity, Tears” value ([1]; 8 h post-dose) was 6660 ng Equivalents ^14C-F6H8/g, the “Mean concentration … (bulbar)” value ([1]; 24 h post-dose) was 1090 ng Equivalents ^14C-F6H8/g and the “Mean concentration … (palpebral)” value ([1]; 24 h post-dose) was 2270 ng Equivalents ^14C-F6H8/g. For the same substance, the “Mean concentration of radioactivity, Cornea” value ([1]; 24 h post-dose) was 2730 ng Equivalents ^14C-F6H8/g, the “Mean concentration … (accessory)” value ([1]; 24 h post-dose) was 1500 ng Equivalents ^14C-F6H8/g and the “Mean concentration … (main)” value ([1]; 24 h post-dose) was 1810 ng Equivalents ^14C-F6H8/g. For the same substance, the “Mean concentration of radioactivity, Meibomian glands” value ([1]; 24 h post-dose) was 14700 ng Equivalents ^14C-F6H8/g, the “Mean concentration … (anterior)” value ([1]; 24 h post-dose) was 611 ng Equivalents ^14C-F6H8/g and the “Mean concentration of radioactivity, Tears” value ([1]; 24 h post-dose) was 1300 ng Equivalents ^14C-F6H8/g. The “Highest concentration, cornea” value [2] was 33500 ng equivalents ^14C—F6H8/g, the “Highest concentration, eyelid margin” value [2] was 443000 ng equivalents ^14C—F6H8/g and the “Highest concentration, internal eyelid” value [2] was 171000 ng equivalents ^14C—F6H8/g.
